Assay results published in patent US20140314857A1, “FORMULATIONS FOR ENHANCED BIOAVAILABILITY OF ZANAMIVIR” (priority 2012, published 2014).
Where “and” joins values, the source holds several entries; their conditions need not be identical. Identical values can stand only once.

Assay: Intravenous and intraduodenal (bolus) bioavailability of zanamivir from Capmul MCM L8 25, 50, 75 µL (Example 7)
Settings: for Co: extrapolated to t = 0
Excerpt: Male Sprague-Dawley rats (Hilltop Labs), 3 animals per treatment group, 250-350 grams in weight, were fitted with a jugular vein cannula (JVC). Animals intended for intraduodenal dosing were also fitted with one or more intraduodenal cannula (IDC) and those intended for intravenous dosing were fitted with a second JVC. Food was withheld from the animals for a minimum of twelve hours prior to test article administration and was returned approximately four hours post-dose. Water was supplied ad libitum.
Intraduodenal doses composed of 1.5 mg of zanamivir and varying amounts of an enhancer (glycerol or Capmul MCM L8) were injected directly into the duodenum via the IDC. Intravenous dosing was conducted by the injection of 1.5 mg of zanamivir in 200 μL of PBS through a JVC. For some experiments, the absorption enhancer was administered intraduodenally 2 hr prior to administering 1.5 mg of zanamivir in PBS through a second IDC. Each intraduodenal dose was followed with the introduction of a small air bubble (˜10 μL) in the cannula followed by a flush of 125 μL of PBS to ensure the dose was given in full. The volume of PBS used for cannula flush was consistent across the treatment groups. The cannula was tied to prevent the PBS remaining in the cannula from entering the duodenum.
Blood samples collected via the JVC, approximately 400 μL each, were obtained at 2 min, 5 min, 15 min, 30 min, 60 min, 90 min, and 120 min, with sodium heparin used as an anti-coagulant. Each sample was placed into a chilled tube containing the anticoagulant and kept on ice until centrifugation at 4° C., 3,000×g, for 5 min. The plasma supernatants were stored at −70° C. until LC-MS analysis.
Dosing solution samples were assayed by LC-MS/MS using electrospray ionization. The chromatographic system consisted of Perkin Elmer series 200 micropumps and autosampler equipped with a Waters Atlantic® HILIC Silica 3 μM, 2.1×50 mm column. The mass spectrometer was a PE Sciex API 4000 with electrospray interface in multiple reaction monitoring mode. […] Stock solutions (1 mg/mL zanamivir) were prepared in water. Standards (eight concentrations) were prepared in the appropriate matched matrix (HBSSg or Sprague-Dawley rat plasma containing sodium heparin) and diluted 50-fold with methanol. Experimental samples were treated identically.
Standards and samples were prepared in Sprague Dawley rat plasma containing sodium heparin as an anticoagulant. An eight-point calibration curve was prepared at concentrations of 1000, 750, 500, 250, 100, 50, 25, and 10 ng/mL by serial dilution. Standard samples were treated identically to the study samples.
Plasma samples were extracted by protein precipitation in methanol.
In this example, the bioavailability of Zanamivir was evaluated after intraduodenal doses in male Sprague-Dawley rats. The test compound was dosed at 1.5 mg/animal through intravenous and intraduodenal routes from normal saline and Capmul MCM L8 formulations, respectively. Plasma levels were determined by LC-MS/MS analysis. Pharmacokinetic parameters were estimated by a non-compartmental model using WinNonlin v5.2.1 software.
Each ID dose in groups 2-4 will be followed with a small air bubble ([…]) and a flush of […] of PBS to insure the dose is given in full. The volume of PBS used for cannulae flush will be maintained consistent across the animals and the treatment groups. The cannula will then be tied to help prevent the PBS remaining in the cannula from entering the duodenum.

[1] = IV 1.5 mg/animal, Normal Saline, Ex.7, individual rats

For `CC(=O)NC1C(NC(=N)N)C=C(C(=O)O)OC1C(O)C(O)CO` (stereo not drawn) [Zanamivir, 5-acetamido-4-guanidino-6-(1,2,3-trihydroxypropyl)-5,6-dihydro-4H-pyran-2-carboxylic acid], the Plasma concentration (ID bolus 1.5 mg/animal, 25 µL Capmul MCM L8, 0.25 hr, individual rats) was 1500 ng/mL and 1380 ng/mL and 655 ng/mL, the Plasma concentration (ID bolus 1.5 mg/animal, 25 µL Capmul MCM L8, 0.5 hr, individual rats) was 950 ng/mL and 647 ng/mL and the Plasma concentration (ID bolus 1.5 mg/animal, 25 µL Capmul MCM L8, 0.83 hr, individual rats) was 1960 ng/mL and 2090 ng/mL and 913 ng/mL. The Plasma concentration (ID bolus 1.5 mg/animal, 25 µL Capmul MCM L8, 1.0 hr, individual rats) was 378 ng/mL and 259 ng/mL, the Plasma concentration (ID bolus 1.5 mg/animal, 25 µL Capmul MCM L8, 1.5 hr, individual rats) was 143 ng/mL and 119 ng/mL and the Plasma concentration (ID bolus 1.5 mg/animal, 25 µL Capmul MCM L8, 2.0 hr, individual rats) was 78.2 ng/mL and 66.8 ng/mL. For the same molecule, the t1/2 (ID bolus 1.5 mg/animal, 25 µL Capmul MCM L8, individual rats) was 26.4 min and 30.7 min, the Plasma concentration (ID bolus 1.5 mg/animal, 50 µL Capmul MCM L8, Ex.7, 0.25 hr, individual rats) was 1400 ng/mL and 1270 ng/mL and the Plasma concentration (ID bolus 1.5 mg/animal, 50 µL Capmul MCM L8, Ex.7, 0.5 hr, individual rats) was 985 ng/mL and 774 ng/mL. The Plasma concentration (ID bolus 1.5 mg/animal, 50 µL Capmul MCM L8, Ex.7, 0.83 hr, individual rats) was 2130 ng/mL and 1600 ng/mL, the Plasma concentration (ID bolus 1.5 mg/animal, 50 µL Capmul MCM L8, Ex.7, 1.0 hr, individual rats) was 708 ng/mL and 551 ng/mL and the Plasma concentration (ID bolus 1.5 mg/animal, 50 µL Capmul MCM L8, Ex.7, 1.5 hr, individual rats) was 299 ng/mL and 217 ng/mL. For the same molecule, the Plasma concentration (ID bolus 1.5 mg/animal, 50 µL Capmul MCM L8, Ex.7, 2.0 hr, individual rats) was 158 ng/mL and 99.5 ng/mL, the t1/2 (ID bolus 1.5 mg/animal, 50 µL Capmul MCM L8, Ex.7, individual rats) was 27.7 min and 24.3 min and the Plasma concentration (IV 1.5 mg/animal, Normal Saline, Ex.7, 0.033 hr, individual rats) was 22900 ng/mL and 20400 ng/mL. For the same molecule, the Plasma concentration (IV 1.5 mg/animal, Normal Saline, Ex.7, 0.083 hr, individual rats) was 12300 ng/mL and 13500 ng/mL, the Plasma concentration (IV 1.5 mg/animal, Normal Saline, Ex.7, 0.25 hr, individual rats) was 9620 ng/mL and 11600 ng/mL and the Plasma concentration (IV 1.5 mg/animal, Normal Saline, Ex.7, 0.5 hr, individual rats) was 5500 ng/mL and 6450 ng/mL. The Plasma concentration (IV 1.5 mg/animal, Normal Saline, Ex.7, 1.0 hr, individual rats) was 1520 ng/mL and 2190 ng/mL, the Plasma concentration (IV 1.5 mg/animal, Normal Saline, Ex.7, 1.5 hr, individual rats) was 661 ng/mL and 862 ng/mL and the Plasma concentration (IV 1.5 mg/animal, Normal Saline, Ex.7, 2.0 hr, individual rats) was 220 ng/mL and 432 ng/mL. For the same molecule, the Co [1] was 32061 ng/mL and 34657 ng/mL and 26863 ng/mL, the Co (IV 1.5 mg/animal, Normal Saline, Ex.7, mean) was 31194 ± 3968 ng/mL and 31194 ng/mL and the CL [1] was 10.7 mL/min/kg and 9.52 mL/min/kg. For the same molecule, the T1/2 [1] was 21.5 min and 25.6 min, the Vss [1] was 0.260 L/kg and 0.278 L/kg and the half-life (male, Sprague-Dawley, rat, in vivo, 1.5 mg, average half-life, ID bolus 1.5 mg/animal, 75 µL Capmul MCM L8) was 24.9 ± 3.78 min. For the same molecule, the bioavailability (male, Sprague-Dawley, rat, in vivo, 1.5 mg, overall percent bioavailability) was 25%, the half-life (male, Sprague-Dawley, rat, in vivo, 1.5 mg, t1/2, ID bolus 1.5 mg/animal, 25 µL Capmul MCM L8, individual rats) was 24.5 min and the half-life (male, Sprague-Dawley, rat, in vivo, 1.5 mg, t1/2, ID bolus 1.5 mg/animal, 25 µL Capmul MCM L8, mean) was 27.2 ± 3.18 min. For the same molecule, the half-life (male, Sprague-Dawley, rat, in vivo, 1.5 mg, t1/2, ID bolus 1.5 mg/animal, 50 µL Capmul MCM L8, Ex.7, individual rats) was 21.8 min, the half-life (male, Sprague-Dawley, rat, in vivo, 1.5 mg, t1/2, ID bolus 1.5 mg/animal, 50 µL Capmul MCM L8, Ex.7, mean) was 24.6 min and the half-life (male, Sprague-Dawley, rat, in vivo, 1.5 mg, t1/2, intraduodenal bolus, 1.5 mg/animal, 75 μL Capmul MCM L8, mean of 3 rats) was 24.9 min. The half-life (male, Sprague-Dawley, rat, in vivo, 1.5 mg, t1/2, intraduodenal bolus, 1.5 mg/animal, 75 μL Capmul MCM L8, rat 963) was 29.2 min, the half-life (male, Sprague-Dawley, rat, in vivo, 1.5 mg, t1/2, intraduodenal bolus, 1.5 mg/animal, 75 μL Capmul MCM L8, rat 964) was 21.9 min and the half-life (male, Sprague-Dawley, rat, in vivo, 1.5 mg, t1/2, intraduodenal bolus, 1.5 mg/animal, 75 μL Capmul MCM L8, rat 965) was 23.6 min. For the same molecule, the half-life (male, Sprague-Dawley, rat, in vivo, 1.5 mg, t1/2, summary, intraduodenal, 1.5 mg/animal, 25 μL Capmul MCM L8) was 27.2 min, the half-life (male, Sprague-Dawley, rat, in vivo, 1.5 mg, t1/2, summary, intraduodenal, 1.5 mg/animal, 50 μL Capmul MCM L8) was 24.6 min and the half-life (male, Sprague-Dawley, rat, in vivo, 1.5 mg, t1/2, summary, intraduodenal, 1.5 mg/animal, 75 μL Capmul MCM L8) was 24.9 min. The Tmax (male, Sprague-Dawley, rat, in vivo, 1.5 mg, tmax, intraduodenal bolus, 1.5 mg/animal, 75 μL Capmul MCM L8, rat 964) was 15 min, the concentration at 0.25 hr (male, Sprague-Dawley, rat, in vivo, 1.5 mg/animal, Plasma concentration, ID bolus 1.5 mg/animal, 25 µL Capmul MCM L8, 0.25 hr, mean) was 1180 ng/mL and the concentration at 0.5 hr (male, Sprague-Dawley, rat, in vivo, 1.5 mg/animal, Plasma concentration, ID bolus 1.5 mg/animal, 25 µL Capmul MCM L8, 0.5 hr, individual rats) was 916 ng/mL. For the same molecule, the concentration at 0.5 hr (male, Sprague-Dawley, rat, in vivo, 1.5 mg/animal, Plasma concentration, ID bolus 1.5 mg/animal, 25 µL Capmul MCM L8, 0.5 hr, mean) was 838 ng/mL, the concentration at 0.83 hr (male, Sprague-Dawley, rat, in vivo, 1.5 mg/animal, Plasma concentration, ID bolus 1.5 mg/animal, 25 µL Capmul MCM L8, 0.83 hr, mean) was 1650 ng/mL and the concentration at 1 hr (male, Sprague-Dawley, rat, in vivo, 1.5 mg/animal, Plasma concentration, ID bolus 1.5 mg/animal, 25 µL Capmul MCM L8, 1.0 hr, individual rats) was 387 ng/mL. The concentration at 1 hr (male, Sprague-Dawley, rat, in vivo, 1.5 mg/animal, Plasma concentration, ID bolus 1.5 mg/animal, 25 µL Capmul MCM L8, 1.0 hr, mean) was 341 ng/mL, the concentration at 1.5 hr (male, Sprague-Dawley, rat, in vivo, 1.5 mg/animal, Plasma concentration, ID bolus 1.5 mg/animal, 25 µL Capmul MCM L8, 1.5 hr, individual rats) was 145 ng/mL and the concentration at 1.5 hr (male, Sprague-Dawley, rat, in vivo, 1.5 mg/animal, Plasma concentration, ID bolus 1.5 mg/animal, 25 µL Capmul MCM L8, 1.5 hr, mean) was 136 ng/mL. It also gave a concentration at 2 hr (male, Sprague-Dawley, rat, in vivo, 1.5 mg/animal, Plasma concentration, ID bolus 1.5 mg/animal, 25 µL Capmul MCM L8, 2.0 hr, individual rats) of 70.7 ng/mL, a concentration at 2 hr (male, Sprague-Dawley, rat, in vivo, 1.5 mg/animal, Plasma concentration, ID bolus 1.5 mg/animal, 25 µL Capmul MCM L8, 2.0 hr, mean) of 71.9 ng/mL and a concentration at 0.25 hr (male, Sprague-Dawley, rat, in vivo, 1.5 mg/animal, Plasma concentration, ID bolus 1.5 mg/animal, 50 µL Capmul MCM L8, Ex.7, 0.25 hr, individual rats) of 2060 ng/mL. It also gave a concentration at 0.25 hr (male, Sprague-Dawley, rat, in vivo, 1.5 mg/animal, Plasma concentration, ID bolus 1.5 mg/animal, 50 µL Capmul MCM L8, Ex.7, 0.25 hr, mean) of 1580 ng/mL, a concentration at 0.5 hr (male, Sprague-Dawley, rat, in vivo, 1.5 mg/animal, Plasma concentration, ID bolus 1.5 mg/animal, 50 µL Capmul MCM L8, Ex.7, 0.5 hr, individual rats) of 1250 ng/mL and a concentration at 0.5 hr (male, Sprague-Dawley, rat, in vivo, 1.5 mg/animal, Plasma concentration, ID bolus 1.5 mg/animal, 50 µL Capmul MCM L8, Ex.7, 0.5 hr, mean) of 1000 ng/mL.
